The assay deals with human adenosine A2a receptor (Homo sapiens, UniProt P29274). Briefly: Adenosine A2a receptor whole cell cyclic AMP assay. The settings on record: for IC50: HEK293 cells stably expressing human A2a, 1 hour compound treatment; for inhibition at 10 µM: HEK293, 1 h, read-out: A2a @ 100 μM Adenosine (A2a cAMP IC50).
Setting [1] is: A2a @ 1 μM Adenosine (A2a cAMP IC50), 1 μM adenosine.
The mark [2] stands for this setting: A2a @ 100 μM Adenosine (A2a cAMP IC50), 100 μM adenosine.

Chain of human adenosine A2a receptor (P29274 whole entry): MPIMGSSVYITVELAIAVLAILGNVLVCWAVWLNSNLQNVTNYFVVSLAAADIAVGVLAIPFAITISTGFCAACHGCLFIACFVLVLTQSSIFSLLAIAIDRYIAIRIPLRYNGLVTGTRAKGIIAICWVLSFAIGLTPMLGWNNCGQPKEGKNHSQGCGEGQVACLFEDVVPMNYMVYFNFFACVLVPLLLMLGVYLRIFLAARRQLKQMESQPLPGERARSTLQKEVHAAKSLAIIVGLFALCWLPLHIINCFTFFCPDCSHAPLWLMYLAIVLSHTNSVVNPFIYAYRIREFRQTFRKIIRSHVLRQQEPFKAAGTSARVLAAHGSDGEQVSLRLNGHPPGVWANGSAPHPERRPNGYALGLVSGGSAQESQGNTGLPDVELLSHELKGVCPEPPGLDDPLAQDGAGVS

Broadly, the IC50 is the point on the concentration scale where inhibition reaches its midpoint. Low values mean greater potency, high ones weaker potency. Consider `Cc1ccnc2ccc(-c3c(-c4cccnc4)nc(N)c4nnnn34)cc12` [1-47, 5-(4-methylquinolin-6-yl)-6-(pyridin-3-yl)tetrazolo[1,5-a]pyrazin-8-amine], for which the IC50 under setting [1] lay within 0.1 to 1 µM.

In the case of `Cc1ccnc2ccc(-c3c(-c4ccccc4C#N)nc(N)c4nnnn34)cc12` [1-49, 2-(8-amino-5-(4-methylquinolin-6-yl)tetrazolo[1,5-a]pyrazin-6-yl)benzonitrile], the IC50 under setting [1] fell in the range of 0.1 to 1 µM.

With `Nc1nc(-c2ccc(F)cc2)c(-c2ccc3ncccc3c2)n2nnnc12` [1-11, 6-(4-fluorophenyl)-5-(quinolin-6-yl)tetrazolo[1,5-a]pyrazin-8-amine], the inhibition at 10 µM is under 25%. Also, the IC50 under setting [1] is under 0.1 µM.

In turn, `Nc1nc(-c2ccc(F)cc2)c(-c2ccc3ncnn3c2)n2nnnc12` [1-8, 5-([1,2,4]triazolo[1,5-a]pyridin-6-yl)-6-(4-fluorophenyl)tetrazolo[1,5-a]pyrazin-8-amine] registered an IC50 under setting [1] of over 1 µM.

Regarding `Cc1cn2cc(-c3c(-c4ccc(F)cc4)nc(N)c4nnnn34)cc(F)c2n1` [1-21, 5-(8-fluoro-2-methylimidazo[1,2-a]pyridin-6-yl)-6-(4-fluorophenyl)tetrazolo[1,5-a]pyrazin-8-amine], the inhibition at 10 µM is under 25%. Under setting [1], this compound displayed an IC50 of over 1 µM.

The compound `Cn1cnc2ccc(-c3c(-c4ccc(C#N)cc4)nc(N)n4nnnc34)cc21` [1-52, 4-(5-amino-8-(1-methyl-1H-benzo[d]imidazol-6-yl)tetrazolo[1,5-c]pyrimidin-7-yl)benzonitrile] displayed an IC50 under setting [1] of 0.1 to 1 µM.

`Cn1cc(-c2c(-c3ccc(F)cc3)nc(N)c3nnnn23)ccc1=O` [1-4, 5-(8-amino-6-(4-fluorophenyl)tetrazolo[1,5-a]pyrazin-5-yl)-1-methylpyridin-2(1H)-one] came in with an IC50 under setting [1] of over 1 µM.

`Cc1cc(-c2nc(N)c3nnnn3c2-c2ccc(F)cc2)cc(Cl)n1` [1-2, 6-(2-chloro-6-methylpyridin-4-yl)-5-(4-fluorophenyl)tetrazolo[1,5-a]pyrazin-8-amine]: the IC50 under setting [1] was over 1 µM.

As to `Nc1nc(-c2ccc(F)cc2)c(-c2cc(Cl)nc(C(F)(F)F)c2)n2nnnc12` [1-55, 5-(2-chloro-6-(trifluoromethyl)pyridin-4-yl)-6-(4-fluorophenyl)tetrazolo[1,5-a]pyrazin-8-amine], the inhibition at 10 µM is under 25%. Under setting [1], the IC50 was in the range of 0.1 to 1 µM.

For the compound `Cc1cc(-c2c(-c3ccccc3F)nc(N)c3nnnn23)cc(Cl)n1` [1-26, 5-(2-chloro-6-methylpyridin-4-yl)-6-(2-fluorophenyl)tetrazolo[1,5-a]pyrazin-8-amine], under setting [1], the IC50 was 0.1 to 1 µM.

Take `Cc1cc(-c2c(-c3ccc(F)cc3)nc(N)n3nnnc23)cc(C)n1` [1-28, 8-(2,6-dimethylpyridin-4-yl)-7-(4-fluorophenyl)tetrazolo[1,5-c]pyrimidin-5-amine]: the inhibition at 10 µM is under 25%. The IC50 under setting [1] was under 0.1 µM.

In turn, `Cn1cc(-c2c(-c3ccc(F)cc3)nc(N)n3nnnc23)ccc1=O` [1-29, 5-(5-amino-7-(4-fluorophenyl)tetrazolo[1,5-c]pyrimidin-8-yl)-1-methylpyridin-2(1H)-one] returned an IC50 under setting [1] of 0.1 to 1 µM.

With `Cc1cc(-c2c(-c3ccc(F)cc3)nc(N)n3nnnc23)cc(C(F)F)n1` [1-58, 8-(2-(difluoromethyl)-6-methylpyridin-4-yl)-7-(4-fluorophenyl)tetrazolo[1,5-c]pyrimidin-5-amine], the IC50 reads like this: under setting [1], 0.1 to 1 µM; under setting [2], over 1 µM.

Consider `COc1ccc(-c2nc(N)c3nnnn3c2-c2ccc3ncc(C)n3c2)cc1` [1-56, 6-(4-methoxyphenyl)-5-(3-methylimidazo[1,2-a]pyridin-6-yl)tetrazolo[1,5-a]pyrazin-8-amine], for which the IC50 is, setting by setting: under setting [1], 0.1 to 1 µM; under setting [2], over 1 µM.

With `COc1ccc(-c2nc(N)c3nnnn3c2-c2ccc3ncn(C)c3c2)cc1` [1-53, 6-(4-methoxyphenyl)-5-(1-methyl-1H-benzo[d]imidazol-6-yl)tetrazolo[1,5-a]pyrazin-8-amine], the inhibition at 10 µM was under 25%. This compound displayed an IC50 under setting [1] of under 0.1 µM.

The compound `Cc1cc(-c2c(-c3ccccc3)nc(N)c3nnnn23)cc(Cl)n1` [1-32, 5-(2-chloro-6-methylpyridin-4-yl)-6-phenyltetrazolo[1,5-a]pyrazin-8-amine] returned an IC50 under setting [1] of 0.1 to 1 µM.

The compound `Nc1nc(-c2ccc(F)cc2)c(-c2ccc3ncccc3c2)c2nnnn12` [1-37, 7-(4-fluorophenyl)-8-(quinolin-6-yl)tetrazolo[1,5-c]pyrimidin-5-amine] had a half-maximal inhibitory concentration (IC50) under setting [1] of 0.1 to 1 µM.

Regarding `Cc1cc(-c2c(-c3ccc(F)cc3)nc(N)n3nnnc23)cc(Cl)n1` [1-33, 8-(2-chloro-6-methylpyridin-4-yl)-7-(4-fluorophenyl)tetrazolo[1,5-c]pyrimidin-5-amine], the IC50 under setting [1] was in the range of 0.1 to 1 µM.

For the compound `Nc1nc(-c2ccc(F)cc2)c(-c2ccc3ncoc3c2)n2nnnc12` [1-10, 5-(benzo[d]oxazol-6-yl)-6-(4-fluorophenyl)tetrazolo[1,5-a]pyrazin-8-amine], the IC50 under setting [1] lay within 0.1 to 1 µM.

Under setting [1], `Cc1ccnc2ccc(-c3c(-c4cccc(C#N)c4)nc(N)c4nnnn34)cc12` [1-31, 3-(8-amino-5-(4-methylquinolin-6-yl)tetrazolo[1,5-a]pyrazin-6-yl)benzonitrile] showed an IC50 of 0.1 to 1 µM.

Under setting [1], `Cn1cnc2ccc(-c3c(-c4ccc(F)cc4)nc(N)n4nnnc34)cc21` [1-30, 7-(4-fluorophenyl)-8-(1-methyl-1H-benzo[d]imidazol-6-yl)tetrazolo[1,5-c]pyrimidin-5-amine] came in with an IC50 of under 0.1 µM.

Take `Cc1ccnc2ccc(-c3c(-c4ccccc4Cl)nc(N)c4nnnn34)cc12` [1-45, 6-(2-chlorophenyl)-5-(4-methylquinolin-6-yl)tetrazolo[1,5-a]pyrazin-8-amine]: under setting [1], the IC50 fell in the range of 0.1 to 1 µM.

Compound `Nc1nc(-c2ccc(F)cc2)c(-c2cc(F)c3ncccc3c2)n2nnnc12` [1-19, 6-(4-fluorophenyl)-5-(8-fluoroquinolin-6-yl)tetrazolo[1,5-a]pyrazin-8-amine] gave a half-maximal inhibitory concentration (IC50) under setting [1] of 0.1 to 1 µM and an IC50 under setting [2] of over 1 µM.

`Cc1cnc2c(Cl)cc(-c3c(-c4ccc(F)cc4)nc(N)c4nnnn34)cn12` [1-24, 5-(8-chloro-3-methylimidazo[1,2-a]pyridin-6-yl)-6-(4-fluorophenyl)tetrazolo[1,5-a]pyrazin-8-amine]: the IC50 lay within 0.1 to 1 µM under setting [1] and 0.1 to 1 µM under setting [2].

In the case of `Cc1cc(-c2c(-c3ccc(F)cc3)nc(N)c3nnnn23)cc(Cl)n1` [1-1, 5-(2-chloro-6-methylpyridin-4-yl)-6-(4-fluorophenyl)tetrazolo[1,5-a]pyrazin-8-amine], under setting [1], the IC50 lay within 0.1 to 1 µM.

Turning to `Nc1nc(-c2ccc(F)cc2)c(-c2ccc3ncsc3c2)n2nnnc12` [1-12, 5-(benzo[d]thiazol-6-yl)-6-(4-fluorophenyl)tetrazolo[1,5-a]pyrazin-8-amine], the inhibition at 10 µM was under 25%. Moreover, under setting [1], the half-maximal inhibitory concentration (IC50) was 0.1 to 1 µM.

For `Cc1ccnc2ccc(-c3c(-c4ccncc4)nc(N)c4nnnn34)cc12` [1-46, 5-(4-methylquinolin-6-yl)-6-(pyridin-4-yl)tetrazolo[1,5-a]pyrazin-8-amine], the IC50 under setting [1] fell in the range of 0.1 to 1 µM.

In the case of `N#Cc1cc(-c2c(-c3ccc(F)cc3)nc(N)n3nnnc23)cc(Cl)n1` [1-41, 4-(5-amino-7-(4-fluorophenyl)tetrazolo[1,5-c]pyrimidin-8-yl)-6-chloropicolinonitrile], under setting [1], the IC50 was 0.1 to 1 µM.

Regarding `Nc1nc(-c2ccc(F)cc2)c(-c2ccc3nccn3c2)n2nnnc12` [1-9, 6-(4-fluorophenyl)-5-(imidazo[1,2-a]pyridin-6-yl)tetrazolo[1,5-a]pyrazin-8-amine], the inhibition at 10 µM is under 25%. In addition, the IC50 under setting [1] fell in the range of 0.1 to 1 µM.

On to `COc1cc(-c2c(-c3ccc(F)cc3)nc(N)c3nnnn23)cc2cccnc12` [1-5, 6-(4-fluorophenyl)-5-(8-methoxyquinolin-6-yl)tetrazolo[1,5-a]pyrazin-8-amine], for which, under setting [1], the IC50 was in the range of 0.1 to 1 µM.

For `Cc1nc2ccc(-c3c(-c4ccc(F)cc4)nc(N)c4nnnn34)cn2n1` [1-18, 6-(4-fluorophenyl)-5-(2-methyl-[1,2,4]triazolo[1,5-a]pyridin-6-yl)tetrazolo[1,5-a]pyrazin-8-amine], the inhibition at 10 µM is under 25%. In addition, the IC50 under setting [1] was over 1 µM.

With `Nc1nc(-c2ccc(F)cc2)c(-c2ccc3ncncc3c2)n2nnnc12` [1-15, 6-(4-fluorophenyl)-5-(quinazolin-6-yl)tetrazolo[1,5-a]pyrazin-8-amine], the inhibition at 10 µM was under 25%. The IC50 under setting [1] is 0.1 to 1 µM.

For the compound `Nc1nc(-c2ccc(F)cc2)c(-c2ccc3nccc(Cl)c3c2)c2nnnn12` [1-35, 8-(4-chloroquinolin-6-yl)-7-(4-fluorophenyl)tetrazolo[1,5-c]pyrimidin-5-amine], the IC50 under setting [1] is under 0.1 µM.

As to `Cc1cc(-c2c(-c3ccc(F)cc3)nc(N)c3nnnn23)cc(C(F)F)n1` [1-54, 5-(2-(difluoromethyl)-6-methylpyridin-4-yl)-6-(4-fluorophenyl)tetrazolo[1,5-a]pyrazin-8-amine], the inhibition at 10 µM was under 25%. The compound further showed an IC50 under setting [1] of 0.1 to 1 µM.

In the case of `COc1ccc(-c2nc(N)n3nnnc3c2-c2cc(Cl)nc(C(F)(F)F)c2)cc1` [1-59, 8-(2-chloro-6-(trifluoromethyl)pyridin-4-yl)-7-(4-methoxyphenyl)tetrazolo[1,5-c]pyrimidin-5-amine], the IC50 runs as follows: under setting [1], 0.1 to 1 µM; under setting [2], over 1 µM.

On to `Cc1ccnc2ccc(-c3c(-c4ccc(C#N)cc4)nc(N)c4nnnn34)cc12` [1-44, 4-(8-amino-5-(4-methylquinolin-6-yl)tetrazolo[1,5-a]pyrazin-6-yl)benzonitrile], for which the IC50 under setting [1] was under 0.1 µM.

As to `N#Cc1cnc2ccc(-c3c(-c4ccc(F)cc4)nc(N)c4nnnn34)cn12` [1-22, 6-(8-amino-6-(4-fluorophenyl)tetrazolo[1,5-a]pyrazin-5-yl)imidazo[1,2-a]pyridine-3-carbonitrile], the inhibition at 10 µM was under 25%. The same compound returned an IC50 under setting [1] of under 0.1 µM.

These data come from patent US12065444B2, “Substituted tetrazolo[1,5-a]pyrazines and tetrazolo[1,5-c]pyrimidines as adenosine receptor antagonists” (Crossignal Therapeutics, Inc., priority 2021, dated 2024).
